Measured values as given in patent publication US10947215B2, “Heteroaryl compounds and their use as therapeutic drugs” (Dong-A Socio Holdings Co., Ltd., priority 2015, dated 2021).

Each compound was assayed on Ba/F3-CDM cells (Ba/F3 transfected with CD8-MerTK) (assay: In cell MER kinase assay, Ba/F3-CDM cell proliferation without IL-3 (Celltiter-Glo, GI50)). Details: 48 hours, read-out: Cell growth inhibition (GI50).
Type: cell-based, murine
Protocol: In Cell MER Kinase Assay Using BaF3 Cellular System
To establish an in cell kinase assay for MerTK kinase, the IL-3 dependent Ba/F3 cells of murine lymphoid origin was transfected with CD8-MerTK. […] For a routine cellular assay, Ba/F3-CDM cells were seeded at 2,000 cells per well in 384-well cell culture plate containing DMEM/10% FBS culture media and incubated for 24 hours before addition of compounds pre-diluted in culture media. Following compound treatment, cells were further incubated for 48 hours and the proliferation was measured. To discriminate a Ba/F3 growth inhibition by a specific inhibition of MerTK kinase following compound treatment vs growth inhibition due to a non-specific unintended cytotoxicity of compounds, we routinely carried out control sets of Ba/F3 cells in parallel that grown in IL3-supplemented growth media. In the presence of IL-3, the proliferation of Ba/F3 is no longer dependent on the MerTK activity. Cell growth and proliferation was measured with Celltiter-Glo™ system (Promega, USA) according to the manufacturer's instruction. The half-maximal growth inhibitory concentration (GI50) value was calculated with Prism6.0 software (GraphPad, USA).

| SMILES | GI50 |
| --- | --- |
| Cc1cccc(C)c1CO[C@H]1CCC[C@@H]1NC(=O)c1cc(-c2cnn(C)c2)cnc1N [Example 15, 2-amino-N-((1S,2S)-2-((2,6-dimethylbenzyl)oxy)cyclopentyl)-5-(1-methyl-1H-pyrazol-4-yl)nicotinamide] | > 1000 nM |
| CCc1cc(CO[C@H]2CCC[C@@H]2NC(=O)c2cc(-c3cnn(C)c3)cnc2N)ccc1C [Example 21] | > 1000 nM |
| CN(C)c1ccc(-c2ccc(CO[C@H]3CCC[C@@H]3NC(=O)c3cc(-c4cnn(C)c4)cnc3N)cc2)cc1 [Example 137, 2-amino-N-((1S,2S)-2-((4′-(dimethylamino)-[1,1′-biphenyl]-4-yl)methoxy)cyclopentyl)-5-(1-methyl-1H-pyrazol-4-yl)nicotinamide] | < 100 nM |
| Cn1cc(-c2cnc(N)c(C(=O)N[C@H]3CCC[C@@H]3OCc3ccc(-c4ccc(CCN)cc4)cc3)c2)cn1 [Example 145, 2-amino-N-((1S,2S)-2-((4′-(2-aminoethyl)-[1,1′-biphenyl]-4-yl)methoxy)cyclopentyl)-5-(1-methyl-1H-pyrazol-4-yl)nicotinamide] | > 1000 nM |
| CN1CCN(c2ccc(-c3ccc(CO[C@H]4CCC[C@@H]4NC(=O)c4cc(-c5cnn(C)c5)cnc4N)cc3)cc2)CC1 [Example 146, 2-amino-5-(1-methyl-1H-pyrazol-4-yl)-N-((1S,2S)-2-((4′-(4-methylpiperazin-1-yl)-[1,1′-biphenyl]-4-yl)methoxy)cyclopentyl)nicotinamide] | < 100 nM |
| CN1CCN(c2ccc(-c3ccc(CO[C@H]4CCC[C@@H]4NC(=O)c4cc(-c5cnn(C)c5)cnc4N)cc3)cn2)CC1 [Example 148, 2-amino-5-(1-methyl-1H-pyrazol-4-yl)-N-((1S,2S)-2-((4-(6-(4-methylpiperazin-1-yl)pyridin-3-yl)benzyl)oxy)cyclopentyl)nicotinamide] | > 1000 nM |
| CN1CCN(Cc2ccc(-c3ccc(CO[C@H]4CCC[C@@H]4NC(=O)c4cc(-c5cnn(C)c5)cnc4N)c(F)c3)cc2)CC1 [Example 156, 2-amino-N-((1S,2S)-2-((3-fluoro-4′-((4-methylpiperazin-1-yl)-methyl)-[1,1′-biphenyl]-4-yl)methoxy)cyclopentyl)-5-(1-methyl-1H-pyrazol-4-yl)-nicotinamide] | < 100 nM |
| CN1CCN(CCc2ccc(-c3ccc(CO[C@H]4CCC[C@@H]4NC(=O)c4cc(-c5cnn(C)c5)cnc4N)cc3)cc2)CC1 [Example 161, 2-amino-5-(1-methyl-1H-pyrazol-4-yl)-N-((1S,2S)-2-((4′-(2-(4-methylpiperazin-1-yl)ethyl)-[1,1′-biphenyl]-4-yl)methoxy)cyclopentyl)nicotinamide] | < 100 nM |
| Cn1cc(-c2cnc(N)c(C(=O)N[C@H]3CCC[C@@H]3OCc3ccc(-c4ccc(CN5CCC(O)CC5)cc4)cc3)c2)cn1 [Example 180, 2-amino-N-((1S,2S)-2-((4′-((4-hydroxypiperidin-1-yl)methyl)-[1,1′-biphenyl]-4-yl)methoxy)cyclopentyl)-5-(1-methyl-1H-pyrazol-4-yl)nicotinamide] | > 1000 nM |
| Cn1cc(-c2cnc(N)c(C(=O)N[C@H]3CCC[C@@H]3OCc3ccc(-c4ccc(CN5CCN(CCO)CC5)cc4)cc3)c2)cn1 [Example 181, 2-amino-N-((1S,2S)-2-((4′-((4-(2-hydroxyethyl)piperazin-1-yl)-methyl)-[1,1′-biphenyl]-4-yl)methoxy)cyclopentyl)-5-(1-methyl-1H-pyrazol-4-yl)-nicotinamide] | < 100 nM |
| Cn1cc(-c2cnc(N)c(C(=O)N[C@H]3CCC[C@@H]3OCc3ccc(-c4ccc(CN5CCN(CC(C)(C)O)CC5)cc4)cc3)c2)cn1 [Example 182, 2-amino-N-((1S,2S)-2-((4′-((4-(2-hydroxy-2-methylpropyl)-piperazin-1-yl)methyl)-[1,1′-biphenyl]-4-yl)methoxy)cyclopentyl)-5-(1-methyl-1H-pyrazol-4-yl)nicotinamide] | < 100 nM |
